* marks the point of attachment. Palmitoyl = CCCCCCCCCCCCCCCC(=O)*
Columns and labels:
[1] = test system: Bone marrow-derived DCs from TLR2^−/− mice; assay: Stimulation of bone marrow dendritic cells from TLR2^−/− mice (IL-6 ELISA, surface activation markers); format: cell-based, mouse; conditions: TLR2^−/− BMDCs, plate-bound LPS (1 μg), MMP (10 μg) or PE DHC (2.5 μg), supernatants after 18 hrs
Protocol: (§1) Bone marrow cells from C57BL/6 and TLR2^−/− mice were cultured at 2×10^5 cells/ml in RPMI containing 10% FCS, 2-ME, and 20 ng/ml recombinant murine GM-CSF for 9 days. Bone marrow DCs (BMDCs) were harvested at Day 9 and were greater than 80% CD11c+. LPS (1 μg), MMP (10 μg) (a bacterial lipoprotein and known TLR-2 ligand: Palmitoyl-Cys ((RS)-2,3-di(palmitoyloxy)-propyl)-Ser-Ser-Asn-Ala-OH(pam3-Cys-Ser-Ser Asn-Ala-OH) (Bachem H-9460), PE DHC (2.5 μg) or 70% EtOH, all in 20 ul volumes, were allowed to dry in the wells of a 24-well plate overnight prior to the addition of BMDCs. BMDCs were cultured in the ligand-bound 24-well plates at 1×10^6 cells/ml in RPMI containing GM-CSF. After 18 hrs, culture supernatants were harvested and tested for IL-6 via ELISA.
(§2) The effects of PE DHC on antigen presenting cell (APC) activation in vitro were examined. Dendritic cells (BMDCs) (>85% CD11c+) were derived from the bone marrow of WT or TLR2^−/− mice and cultured either alone or with EtOH, LPS, MMP (a TLR2 ligand), or PE DHC. After 18 Ins supernatants were assayed for IL-6. […] BMDCs were also assayed for expression of the surface activation markers B7.2 and MHC class II.

[2] = test system: Bone marrow-derived DCs from wild-type (WT) mice; assay: Stimulation of bone marrow dendritic cells from wild-type mice (IL-6 ELISA, surface activation markers); format: cell-based, mouse; conditions: WT BMDCs, plate-bound LPS (1 μg), MMP (10 μg) or PE DHC (2.5 μg), supernatants after 18 hrs
Protocol: as §1, §2

Question: What does the source list for “Palmitoyl-Cys ((RS)-2,3-di(palmitoyloxy)-propyl)-Ser-Ser-Asn-Ala-OH ({Palmitoyl-Cys((RS)-2,3-di(palmitoyloxy)-propyl)}-SSNA-OH) [MMP, a bacterial lipoprotein and known TLR-2 ligand (Bachem H-9460)]”?
Answer: IL-6 secretion [1]: did not; IL-6 secretion [2]: resulted in IL-6 secretion

— patent US20130216553A1, “Compositions and Methods for Modulation and Detection of Immune and Inflammatory Responses” (priority 2010, published 2013)
